Data from the supplement of paper PMC10627819.

Legend:
S. aureus DSM 20231 [1] = assay: fitness (endpoint OD595 vs no drug) (fraction); higher = more growth
How it was run: (§1)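 Fitness was defined as the optical density at the transition into stationary phase relative to the robust mean of no-drug control wells. Values were capped at 1. Cultures were started at OD595 0.01 in 384-well plates (30 µl, or 55 µl for S. pneumoniae) in TSB, LB Lennox or CY at 37 °C. OD595 was recorded every 30 min over 14 h, with the first reading subtracted as background.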

S. pneumoniae D39V [2] = assay: as above
How it was run: as §1

B. subtilis 168 = assay: Bliss interaction score (quartile over a dose matrix) (fitness difference); higher = more antagonism (negative = synergy)
How it was run: (§2)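 Fitness was derived from optical density at entry into stationary phase, divided by the robust mean of the no-drug wells on the same plate. That reading was taken as OD595, and the ratio was capped at 1. Single-drug fitness was inferred from the combination data. The Bliss score, observed fitness minus the expected product of single-drug fitness, was summarised as quartiles over technical, biological and donor/recipient replicates.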

S. aureus DSM 20231 [3] = assay: as above
How it was run: as §2

S. aureus Newman = assay: as above
How it was run: as §2

S. pneumoniae D39V [4] = assay: as above
How it was run: as §2
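For Bliss interaction score (quartile over a dose matrix) in this document: first quartile when negative (synergy) and third quartile when positive (antagonism).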

CC1(C)S[C@@H]2[C@H](NC(=O)[C@H](N)c3ccc(O)cc3)C(=O)N2[C@H]1C(=O)O [Amoxicillin] + CC(=O)NC[C@H]1CN(c2ccc(N3CCOCC3)c(F)c2)C(=O)O1 [Linezolid]
Details	fitness
S. aureus DSM 20231 [1], first compound 0.0625 µg/mL, partner 0.125 µg/mL	0.652
S. aureus DSM 20231 [1], first compound 0.0625 µg/mL, partner 0.25 µg/mL	0.427
S. aureus DSM 20231 [1], first compound 0.0625 µg/mL, partner 0.5 µg/mL	0.161
S. aureus DSM 20231 [1], first compound 0.125 µg/mL, partner 0.125 µg/mL	0.368
S. aureus DSM 20231 [1], first compound 0.125 µg/mL, partner 0.25 µg/mL	0.292
S. aureus DSM 20231 [1], first compound 0.125 µg/mL, partner 0.5 µg/mL	0.0966
S. aureus DSM 20231 [1], first compound 0.25 µg/mL, partner 0.125 µg/mL	0.129
S. aureus DSM 20231 [1], first compound 0.25 µg/mL, partner 0.25 µg/mL	0.0329
S. aureus DSM 20231 [1], first compound 0.25 µg/mL, partner 0.5 µg/mL	0.0469
S. pneumoniae D39V [2], first compound 0.0008 µg/mL, partner 0.105 µg/mL	0.877
S. pneumoniae D39V [2], first compound 0.0008 µg/mL, partner 0.21 µg/mL	0.724
S. pneumoniae D39V [2], first compound 0.0008 µg/mL, partner 0.42 µg/mL	0.592
S. pneumoniae D39V [2], first compound 0.0015 µg/mL, partner 0.105 µg/mL	0.84
S. pneumoniae D39V [2], first compound 0.0015 µg/mL, partner 0.2 µg/mL	0.885
S. pneumoniae D39V [2], first compound 0.0015 µg/mL, partner 0.21 µg/mL	0.784
S. pneumoniae D39V [2], first compound 0.0015 µg/mL, partner 0.4 µg/mL	0.523
S. pneumoniae D39V [2], first compound 0.0015 µg/mL, partner 0.42 µg/mL	0.578
S. pneumoniae D39V [2], first compound 0.0015 µg/mL, partner 0.8 µg/mL	0.377
S. pneumoniae D39V [2], first compound 0.003 µg/mL, partner 0.105 µg/mL	0.811
S. pneumoniae D39V [2], first compound 0.003 µg/mL, partner 0.2 µg/mL	0.832
S. pneumoniae D39V [2], first compound 0.003 µg/mL, partner 0.21 µg/mL	0.72
S. pneumoniae D39V [2], first compound 0.003 µg/mL, partner 0.4 µg/mL	0.57
S. pneumoniae D39V [2], first compound 0.003 µg/mL, partner 0.42 µg/mL	0.507
S. pneumoniae D39V [2], first compound 0.003 µg/mL, partner 0.8 µg/mL	0.39

one replicate
Details	fitness
S. aureus DSM 20231 [1], first compound 0.0625 µg/mL, partner 1 µg/mL	0.0145
S. aureus DSM 20231 [1], first compound 0.125 µg/mL, partner 1 µg/mL	0.012
S. aureus DSM 20231 [1], first compound 0.25 µg/mL, partner 1 µg/mL	0.0104
S. aureus DSM 20231 [1], first compound 0.5 µg/mL, partner 0.125 µg/mL	0.0313
S. aureus DSM 20231 [1], first compound 0.5 µg/mL, partner 0.25 µg/mL	0.0362
S. aureus DSM 20231 [1], first compound 0.5 µg/mL, partner 0.5 µg/mL	0.032
S. pneumoniae D39V [2], first compound 0.0008 µg/mL, partner 0.2 µg/mL	0.875
S. pneumoniae D39V [2], first compound 0.0008 µg/mL, partner 0.4 µg/mL	0.648
S. pneumoniae D39V [2], first compound 0.0008 µg/mL, partner 0.8 µg/mL	0.419
S. pneumoniae D39V [2], first compound 0.006 µg/mL, partner 0.2 µg/mL	0.532
S. pneumoniae D39V [2], first compound 0.006 µg/mL, partner 0.4 µg/mL	0.359
S. pneumoniae D39V [2], first compound 0.006 µg/mL, partner 0.8 µg/mL	0.212

Details	Bliss interaction score
B. subtilis 168	-0.0837
S. aureus DSM 20231 [3]	0.0353
S. aureus Newman	-0.0532
S. pneumoniae D39V [4]	0.225

CC1(C)S[C@@H]2[C@H](NC(=O)[C@H](N)c3ccc(O)cc3)C(=O)N2[C@H]1C(=O)O [Amoxicillin] + CCC[C@@H]1C[C@@H](C(=O)N[C@@H]([C@H]2O[C@H](SC)[C@H](O)[C@@H](O)[C@H]2O)[C@@H](C)O)N(C)C1 [Lincomycin]
fitness
Details	partner 0.1 µg/mL	partner 0.2 µg/mL	partner 0.215 µg/mL	partner 0.4 µg/mL	partner 0.43 µg/mL	partner 0.8 µg/mL	partner 0.86 µg/mL
S. aureus DSM 20231 [1], first compound 0.0625 µg/mL	0.624	0.492	–	0.213	–	–	–
S. aureus DSM 20231 [1], first compound 0.125 µg/mL	–	0.358	–	0.129	–	–	–
S. aureus DSM 20231 [1], first compound 0.25 µg/mL	0.0334	0.0486	–	0.064	–	–	–
S. aureus DSM 20231 [1], first compound 0.5 µg/mL	0.0005	0.0261	–	0.0105	–	–	–
S. pneumoniae D39V [2], first compound 0.0008 µg/mL	–	–	0.838	–	0.739	–	0.409
S. pneumoniae D39V [2], first compound 0.0015 µg/mL	–	0.847	0.878	0.54	0.744	0.312	0.437
S. pneumoniae D39V [2], first compound 0.003 µg/mL	–	0.816	0.852	0.554	0.744	0.337	0.477

fitness, S. pneumoniae D39V [2], one replicate
Details	partner 0.2 µg/mL	partner 0.4 µg/mL	partner 0.8 µg/mL
first compound 0.0008 µg/mL	0.878	0.489	0.393
first compound 0.006 µg/mL	0.484	0.216	0.143

Details	Bliss interaction score
B. subtilis 168	-0.0381
S. aureus DSM 20231 [3]	-0.0436
S. aureus Newman	0.117
S. pneumoniae D39V [4]	0.227

CC1(C)S[C@@H]2[C@H](NC(=O)[C@H](N)c3ccc(O)cc3)C(=O)N2[C@H]1C(=O)O [Amoxicillin] + COc1cc(Cc2cnc(N)nc2N)cc(OC)c1OC [Trimethoprim]
fitness, S. aureus DSM 20231 [1]
Details	partner 0.125 µg/mL	partner 0.25 µg/mL	partner 0.5 µg/mL	partner 1 µg/mL
first compound 0.0625 µg/mL	0.511	0.401	0.0356	0.0213
first compound 0.125 µg/mL	0.189	0.11	0.0261	0.0335
first compound 0.25 µg/mL	0.0479	0.037	0.033	0.0125

S. aureus DSM 20231 [1], first compound 0.5 µg/mL, one replicate
Details	fitness
partner 0.125 µg/mL	0.0327
partner 0.25 µg/mL	0.0355
partner 0.5 µg/mL	0.0427

Details	Bliss interaction score
B. subtilis 168	-0.139
S. aureus DSM 20231 [3]	-0.0714
S. aureus Newman	0.0661
S. pneumoniae D39V [4]	0.174

CO/N=C(\C(=O)N[C@@H]1C(=O)N2C(C(=O)[O-])=C(C[N+]3(C)CCCC3)CS[C@H]12)c1csc(N)n1 [Cefepime] + CC(=O)NC[C@H]1CN(c2ccc(N3CCOCC3)c(F)c2)C(=O)O1 [Linezolid]
Details	fitness
S. aureus DSM 20231 [1], first compound 0.125 µg/mL, partner 0.125 µg/mL	0.843
S. aureus DSM 20231 [1], first compound 0.125 µg/mL, partner 0.25 µg/mL	0.625
S. aureus DSM 20231 [1], first compound 0.125 µg/mL, partner 0.5 µg/mL	0.287
S. aureus DSM 20231 [1], first compound 0.25 µg/mL, partner 0.125 µg/mL	0.956
S. aureus DSM 20231 [1], first compound 0.25 µg/mL, partner 0.25 µg/mL	0.655
S. aureus DSM 20231 [1], first compound 0.25 µg/mL, partner 0.5 µg/mL	0.375
S. aureus DSM 20231 [1], first compound 0.5 µg/mL, partner 0.125 µg/mL	0.903
S. aureus DSM 20231 [1], first compound 0.5 µg/mL, partner 0.25 µg/mL	0.669
S. aureus DSM 20231 [1], first compound 0.5 µg/mL, partner 0.5 µg/mL	0.322
S. pneumoniae D39V [2], first compound 0.007 µg/mL, partner 0.2 µg/mL	0.827
S. pneumoniae D39V [2], first compound 0.007 µg/mL, partner 0.4 µg/mL	0.567
S. pneumoniae D39V [2], first compound 0.007 µg/mL, partner 0.8 µg/mL	0.253
S. pneumoniae D39V [2], first compound 0.0078 µg/mL, partner 0.105 µg/mL	0.934
S. pneumoniae D39V [2], first compound 0.0078 µg/mL, partner 0.21 µg/mL	0.825
S. pneumoniae D39V [2], first compound 0.0078 µg/mL, partner 0.42 µg/mL	0.692
S. pneumoniae D39V [2], first compound 0.014 µg/mL, partner 0.2 µg/mL	0.797
S. pneumoniae D39V [2], first compound 0.014 µg/mL, partner 0.4 µg/mL	0.573
S. pneumoniae D39V [2], first compound 0.014 µg/mL, partner 0.8 µg/mL	0.259
S. pneumoniae D39V [2], first compound 0.0155 µg/mL, partner 0.105 µg/mL	0.912
S. pneumoniae D39V [2], first compound 0.0155 µg/mL, partner 0.21 µg/mL	0.796
S. pneumoniae D39V [2], first compound 0.0155 µg/mL, partner 0.42 µg/mL	0.608
S. pneumoniae D39V [2], first compound 0.028 µg/mL, partner 0.2 µg/mL	0.751
S. pneumoniae D39V [2], first compound 0.028 µg/mL, partner 0.4 µg/mL	0.512
S. pneumoniae D39V [2], first compound 0.028 µg/mL, partner 0.8 µg/mL	0.244
S. pneumoniae D39V [2], first compound 0.031 µg/mL, partner 0.105 µg/mL	0.645
S. pneumoniae D39V [2], first compound 0.031 µg/mL, partner 0.21 µg/mL	0.504
S. pneumoniae D39V [2], first compound 0.031 µg/mL, partner 0.42 µg/mL	0.258

S. aureus DSM 20231 [1], partner 1 µg/mL, one replicate
Details	fitness
first compound 0.125 µg/mL	0.0467
first compound 0.25 µg/mL	0.0593
first compound 0.5 µg/mL	0.052

Details	Bliss interaction score
B. subtilis 168	0.0847
S. aureus DSM 20231 [3]	0.11
S. aureus Newman	0.0424
S. pneumoniae D39V [4]	0.165
